From patent US20040208844A1, “Products and drug delivery vehicles” (priority 2001, published 2004)

Molecular target: T1, Human placenta or human platelet vitronectin receptor, αvβ3 (Homo sapiens, UniProt P05106+P06756)
T1 construct: Human placenta or human platelet vitronectin receptor, αvβ3; from tissue; host or cells: human placenta or human platelets
Test: [3H]-SK&F-107260 vitronectin receptor binding assay
Settings: sample dissolved in 1:1 TBS:DMSO; 5 nM [3H]-SK&F-107260
Description: In vitro binding affinity of conjugates, polymeric micelles and polymer therapeutics of the present invention may be determined by receptor binding assays such as are known in the art. Conjugates, polymeric micelles and polymer therapeutics of the present invention will have a Ki (the dissociation constant of the antagonist) according to a receptor binding assay in the nanomolar to micromolar range, preferably in the nanomolar range.
The following samples were prepared for an in vitro binding assay:
Solution #1: polymer-receptor antagonist conjugate according to Example 3b, dissolved in TBS at a concentration of 10 milliMole of VRA 1.
Solution #2: PEG-PLA copolymer according to Example 2B, dissolved in TBS at a concentration of 50 mg/ml;
Solution #3: VRA 1 dissolved in 1:1 TBS:DMSO at a concentration of 10 milliMole;
Solution #4: polymer-receptor antagonist conjugate according to Example 3b, dissolved in 1:1 TBS:DMSO at a concentration of 10 milliMole VRA 1; and […]
Binding studies were carried out according to the method described by Wong et al., Studies on alphavbeta3/ligand interactions using a (^3H)SK&F-107260 binding assay, Mol. Pharmacology, 1996, 50, 529-537. […] After one hour incubation at room temperature, the wells were aspirated completely and washed twice with 100 ul of ice-cold Buffer A. Bound [^3H]-SK&F-107260 was solubilized and counted.

T1 sequence (P06756 31-889 limits assumed): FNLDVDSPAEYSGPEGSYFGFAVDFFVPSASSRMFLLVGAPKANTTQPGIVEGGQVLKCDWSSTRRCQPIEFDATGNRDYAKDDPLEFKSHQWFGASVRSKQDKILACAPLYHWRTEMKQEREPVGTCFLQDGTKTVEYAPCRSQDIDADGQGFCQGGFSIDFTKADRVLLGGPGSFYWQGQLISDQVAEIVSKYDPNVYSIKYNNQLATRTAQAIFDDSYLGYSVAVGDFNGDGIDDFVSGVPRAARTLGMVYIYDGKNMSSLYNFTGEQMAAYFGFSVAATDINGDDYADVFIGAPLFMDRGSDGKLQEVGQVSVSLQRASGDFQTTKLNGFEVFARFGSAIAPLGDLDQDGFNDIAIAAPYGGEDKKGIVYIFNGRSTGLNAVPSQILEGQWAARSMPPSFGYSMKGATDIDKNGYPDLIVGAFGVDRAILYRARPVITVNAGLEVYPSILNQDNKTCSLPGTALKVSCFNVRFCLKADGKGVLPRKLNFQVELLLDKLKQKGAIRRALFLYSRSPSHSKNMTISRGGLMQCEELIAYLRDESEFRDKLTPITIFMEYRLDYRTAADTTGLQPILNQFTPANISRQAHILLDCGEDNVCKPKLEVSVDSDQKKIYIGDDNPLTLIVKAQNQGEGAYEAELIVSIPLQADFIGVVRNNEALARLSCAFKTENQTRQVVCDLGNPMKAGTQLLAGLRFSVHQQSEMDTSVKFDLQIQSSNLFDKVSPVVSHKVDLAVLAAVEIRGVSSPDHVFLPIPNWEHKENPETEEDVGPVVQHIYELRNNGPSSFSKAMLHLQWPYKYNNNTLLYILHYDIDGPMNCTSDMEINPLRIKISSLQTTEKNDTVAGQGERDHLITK
T1 sequence (P06756 891-1048 partner limits assumed): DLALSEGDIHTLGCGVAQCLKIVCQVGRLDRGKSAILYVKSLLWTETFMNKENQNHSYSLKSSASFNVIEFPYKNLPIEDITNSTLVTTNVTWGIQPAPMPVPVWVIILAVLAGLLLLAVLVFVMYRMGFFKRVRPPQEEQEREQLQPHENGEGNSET
T1 sequence (P05106 27-788): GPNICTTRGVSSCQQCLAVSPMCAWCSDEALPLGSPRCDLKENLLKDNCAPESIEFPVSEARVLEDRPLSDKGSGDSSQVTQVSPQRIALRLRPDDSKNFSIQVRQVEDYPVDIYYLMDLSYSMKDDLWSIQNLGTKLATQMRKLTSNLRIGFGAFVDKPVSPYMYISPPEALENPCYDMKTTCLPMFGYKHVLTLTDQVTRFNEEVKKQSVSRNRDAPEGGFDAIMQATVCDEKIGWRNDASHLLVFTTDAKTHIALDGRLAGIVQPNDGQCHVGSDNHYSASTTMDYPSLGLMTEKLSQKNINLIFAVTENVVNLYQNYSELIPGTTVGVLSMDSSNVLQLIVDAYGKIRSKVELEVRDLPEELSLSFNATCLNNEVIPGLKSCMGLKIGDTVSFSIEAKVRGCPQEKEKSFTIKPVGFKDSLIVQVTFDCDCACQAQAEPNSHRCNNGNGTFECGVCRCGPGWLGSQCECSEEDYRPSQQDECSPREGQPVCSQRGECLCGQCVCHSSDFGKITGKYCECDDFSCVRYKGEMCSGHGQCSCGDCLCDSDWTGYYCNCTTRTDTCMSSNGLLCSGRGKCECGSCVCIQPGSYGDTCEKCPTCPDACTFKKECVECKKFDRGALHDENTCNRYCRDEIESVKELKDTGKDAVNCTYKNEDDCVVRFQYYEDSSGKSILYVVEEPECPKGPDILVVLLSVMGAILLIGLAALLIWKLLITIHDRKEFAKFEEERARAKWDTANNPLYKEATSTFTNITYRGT

CN1Cc2cc(C(=O)N(CCCCN)Cc3nc4ccccc4[nH]3)ccc2N[C@@H](CC(=O)O)C1=O [VRA 1, (S)-7-[[N-(4-Aminobutyl)-N-(benzimidazol-2-ylmethyl)]amino]carbonyl-4-methyl-3-oxo-2,3,4,5-tetrahydro-1H-1,4-benzodiazepine-2-acetic acid]
Ki: 1.7 nM
